Tests used:
[1] = tested on: GABAA receptors; assay: Influence on the binding of [3H]muscimol to GABAA receptors (rat cerebral cortex membranes); details: 5 nM [3H]muscimol
Description: The following determinations of the influence of allopregnanolone, 3-α-OH-CMA or 3-β-OH-CMA on the binding of muscimol to GABAA receptors (rat) are based on the experimental methods published by Snodgrass, S. R. (Nature, 1979, vol. 273, p. 392-394). The corresponding disclosure is hereby introduced as a reference and is part of the disclosure of the present application.
Membrane preparations are produced from rat cerebral cortex material. The reference substance used is 5 nM of [^3H] muscimol; 10 μM of muscimol are used for determining nonspecific binding. The incubation period of the substances ([^3H]muscimol, allopregnanolone) on the receptor amounts in each case to 10 minutes at a temperature of approx. 4° C. The stock solution (5×10^−2 M) of allopregnanolone is in each case prediluted 1:10 in 75% strength DMSO and then further diluted 1:5 in 25% strength DMSO. The final concentration of allopregnanolone in the test is in each case 1×10^−10 M, 1×10^−9 M, 1×10^−8 M, 1×10^−7 M, 1×10^−6 M and 1×10^−5 M. After the above-stated incubation period of the substances, the incubation batches are filtered using standard methods and washed and the radioactivity of the filters is determined with a scintillation counter. Such standard methods are known to a person skilled in the art. The experiments are in each case carried out on duplicate batches.
The influence of 3-α-OH-CMA or 3-β-OH-CMA on the binding of muscimol to GABAA receptors (rat) is determined in a manner similar to the above-described method. 3-α-OH-CMA or 3-β-OH-CMA is used instead of allopregnanolone.

[2] = molecular target: T1, human progesterone receptor (Homo sapiens, UniProt P06401); assay: Affinity for the human progesterone receptor ([3H]R 5020 displacement, MCF-7 cytosol); format: binding; details: for IC50: 2 nM [3H]R 5020, MCF-7 cytosol, 20 hours, approx. 4° C.; for Ki: Cheng-Prusoff from IC50
T1 construct: The cytosolic fractions of MCF-7 cells, which contain the human progesterone receptor, are used; endogenous in cells; host or cells: MCF-7 cells (cytosolic fraction)
T1 sequence (P06401 1-933): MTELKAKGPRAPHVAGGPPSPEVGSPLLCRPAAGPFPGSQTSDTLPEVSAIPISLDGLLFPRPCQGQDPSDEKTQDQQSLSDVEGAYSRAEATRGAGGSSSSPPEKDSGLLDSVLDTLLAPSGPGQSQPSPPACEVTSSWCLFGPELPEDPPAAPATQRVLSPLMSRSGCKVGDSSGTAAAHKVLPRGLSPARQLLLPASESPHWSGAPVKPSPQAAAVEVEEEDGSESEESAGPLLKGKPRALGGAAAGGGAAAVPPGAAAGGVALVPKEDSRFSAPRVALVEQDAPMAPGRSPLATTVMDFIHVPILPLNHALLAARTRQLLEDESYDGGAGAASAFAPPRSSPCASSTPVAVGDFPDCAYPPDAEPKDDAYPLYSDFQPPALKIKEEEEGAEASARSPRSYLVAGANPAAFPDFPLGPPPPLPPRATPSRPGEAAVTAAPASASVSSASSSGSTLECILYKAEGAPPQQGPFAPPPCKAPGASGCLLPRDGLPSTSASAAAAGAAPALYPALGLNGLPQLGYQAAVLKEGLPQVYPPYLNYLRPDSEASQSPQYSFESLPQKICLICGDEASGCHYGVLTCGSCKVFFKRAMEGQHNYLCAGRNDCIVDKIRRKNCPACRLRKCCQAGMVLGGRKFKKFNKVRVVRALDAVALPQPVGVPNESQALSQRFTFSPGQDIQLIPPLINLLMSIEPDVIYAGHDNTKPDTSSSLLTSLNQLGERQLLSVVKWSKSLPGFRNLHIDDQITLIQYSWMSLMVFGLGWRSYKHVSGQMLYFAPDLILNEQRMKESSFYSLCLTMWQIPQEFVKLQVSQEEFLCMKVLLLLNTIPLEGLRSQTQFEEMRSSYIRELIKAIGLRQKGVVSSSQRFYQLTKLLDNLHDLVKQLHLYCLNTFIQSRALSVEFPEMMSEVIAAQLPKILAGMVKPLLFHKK
Description: (§1) The following determination of the affinity of 3-α-OH-CMA or 3-β-OH-CMA for the human progesterone receptor is based on the experimental methods published by Eckert et al. (Cancer Research, 1982, vol. 42, pp. 139-144). The corresponding disclosure is hereby introduced as a reference and is part of the disclosure of the present application.
The cytosolic fractions of MCF-7 cells, which contain the human progesterone receptor, are used. The reference substance used is 2 nM of [^3H] R 5020; 1 μM of R 5020 is used for determining nonspecific binding. The incubation period of the substances ([^3H] R 5020, 3-α-OH-CMA or 3-β-OH-CMA) on the receptor amounts in each case to 20 hours at a temperature of approx. 4° C. Stock solutions (5×10^−2 M) of 3-α-OH-CMA or 3-β-OH-CMA are in each case prediluted 1:10 in 75% strength DMSO and then further diluted 1:5 in 25% strength DMSO. The final concentrations of 3-α-OH-CMA or 3-β-OH-CMA in the test are 3×10^−10 M, 3×10^−9 M, 1×10^−8 M, 3×10^−8 M, 1×10^−7 M, 3×10^−7 M, 1×10^−6 M and 1×10^−5 M. After the above-stated incubation period of the substances, the incubation batches are filtered using standard methods and washed and the radioactivity of the filters is determined with a scintillation counter. Such standard methods are known to a person skilled in the art. The experiments are in each case carried out on duplicate batches.
The corresponding IC50 values are calculated by nonlinear regression analysis of the displacement curves using the Hill curve fitting formula. A person skilled in the art is aware of such a calculation procedure.
The corresponding Ki values (inhibition constants) are determined using the Cheng-Prusoff equation (Ki=IC50/(1+(L/KD)), where L denotes the concentration of the radioligand in the test and KD the affinity of the radioligand for the receptor).

[3] = molecular target: T2, human androgen receptor (Homo sapiens, UniProt P10275, T878A); assay: Affinity for the human androgen receptor ([3H]methyltrienolone displacement, LNCaP cytosol); format: binding
T2 construct: The cytosolic fractions of LNCaP cells, which contain the human androgen receptor, are used; endogenous in cells; host or cells: LNCaP cells (cytosolic fraction)
T2 sequence (P10275 1-920 T878A): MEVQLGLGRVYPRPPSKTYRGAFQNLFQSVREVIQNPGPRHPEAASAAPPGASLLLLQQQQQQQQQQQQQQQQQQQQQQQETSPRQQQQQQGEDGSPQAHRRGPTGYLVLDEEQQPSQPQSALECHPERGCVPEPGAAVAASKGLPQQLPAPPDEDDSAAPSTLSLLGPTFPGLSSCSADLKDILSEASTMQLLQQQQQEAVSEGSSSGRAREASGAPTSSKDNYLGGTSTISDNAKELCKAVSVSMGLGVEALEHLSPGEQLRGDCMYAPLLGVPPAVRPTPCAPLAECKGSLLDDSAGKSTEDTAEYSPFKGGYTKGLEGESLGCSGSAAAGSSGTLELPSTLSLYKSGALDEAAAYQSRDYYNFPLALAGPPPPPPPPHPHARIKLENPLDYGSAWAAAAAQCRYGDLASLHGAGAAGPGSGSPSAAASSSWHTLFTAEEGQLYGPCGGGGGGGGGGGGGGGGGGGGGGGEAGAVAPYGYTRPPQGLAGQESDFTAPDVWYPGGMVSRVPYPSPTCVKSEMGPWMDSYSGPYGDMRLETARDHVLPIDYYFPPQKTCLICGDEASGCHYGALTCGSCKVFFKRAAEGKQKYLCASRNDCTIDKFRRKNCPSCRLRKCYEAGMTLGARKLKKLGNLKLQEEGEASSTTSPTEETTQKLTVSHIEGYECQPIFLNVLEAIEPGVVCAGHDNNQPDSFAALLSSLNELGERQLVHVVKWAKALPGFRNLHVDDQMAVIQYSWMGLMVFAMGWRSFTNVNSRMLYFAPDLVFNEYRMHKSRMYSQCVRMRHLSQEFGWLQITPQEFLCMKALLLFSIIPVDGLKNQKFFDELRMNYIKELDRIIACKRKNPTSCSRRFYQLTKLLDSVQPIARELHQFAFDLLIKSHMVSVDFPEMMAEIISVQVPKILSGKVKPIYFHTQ
Description: as §1, with “androgen” for “progesterone”, “Zava” for “Eckert”, “(Endocrinology, 1979,” for “(Cancer Research, 1982,”, “104,” for “42,”, “1007-1012).” for “139-144).”
The cytosolic fractions of LNCaP cells, which contain the human androgen receptor, are used. The reference substance used is 0.5 nM of [^3H]methyltrienolone; 1 μM of mibolerone is used for determining nonspecific binding. The incubation period of the substances ([^3H]methyltrienolone, 3-α-OH-CMA or 3-β-OH-CMA) on the receptor amounts in each case to 24 hours at a temperature of approx. 4° C. The stock solutions, the dilution series of 3-α-OH-CMA or 3-β-OH-CMA, the washing steps, the determination of radioactivity, and the methods for calculating the particular IC50 and Ki values match the experimental protocol described in point 2).

| SMILES | increase of binding of radioactively labelled muscimol ([1]; 0.1 μM test substance) [%] | IC50 [2] [nM] | Ki [2] [nM] | IC50 [3] [nM] | Ki [3] [nM] | increase of binding of radioactively labelled muscimol ([1]; 0.001 μM test substance) [%] | increase of binding of radioactively labelled muscimol ([1]; 1 μM test substance, 10 min, approx. 4° C.) [%] |
| --- | --- | --- | --- | --- | --- | --- | --- |
| CC(=O)O[C@]1(C(C)=O)CC[C@H]2[C@@H]3C=C(Cl)C4=C[C@@H](O)CC[C@]4(C)[C@H]3CC[C@@]21C [3-β-OH-CMA, 3β-hydroxy-6-chloro-17α-acetoxy-4,6-pregnadien-20-one] | 31 | 18 | 6 | 25 | 20 |  |  |
| CC(=O)O[C@]1(C(C)=O)CC[C@H]2[C@@H]3C=C(Cl)C4=C[C@H](O)CC[C@]4(C)[C@H]3CC[C@@]21C [3-α-OH-CMA, 3α-hydroxy-6-chloro-17α-acetoxy-4,6-pregnadien-20-one] |  | 39 | 13 | 100 | 83 | 12 |  |
| CC(=O)[C@H]1CC[C@H]2[C@@H]3CC[C@H]4C[C@H](O)CC[C@]4(C)[C@H]3CC[C@]12C [allopregnanolone, reference compound] |  |  |  |  |  |  | 38 |

From patent US20080312200A1, “Medicament Comprising A Hormone Combination” (Grunenthal GmbH, priority 2006, published 2008)
